# Like-named read-outs stand apart in the source and are kept apart here.
# Assays:
# TNF = experiment: PBMC assay: TNF cytokine level after LPS stimulation; format: cell-based; conditions: human PBMCs, 30 min compound, 100 ng/ml LPS for 6 hrs, MSD
# Experimental: (§1) Peripheral venous blood was collected from healthy individuals and human peripheral blood mononuclear cells (PBMCs) were isolated from blood by Ficoll-Histopaque (Sigma-Aldrich, A0561) density gradient centrifugation. After isolation, PBMCs were stored in liquid nitrogen for later use. Upon thawing, PBMC cell viability was determined in growth medium (RPMI media supplemented with 10% fetal bovine serum, 1% Pen-Strep and 1% L-glutamine). Compounds were spotted in a 1:3 serial dilution in DMSO and diluted to the final concentration in 30 μl medium in 96 well plates (Falcon, 353072). PBMCs were added at a density of 7.5×10^4 cells per well and incubated for 30 min in a 5% CO2 incubator at 37° C. LPS stimulation was performed by addition of 100 ng/ml LPS (final concentration, Invivogen, tlrl-smlps) for 6 hrs followed by collection of cellular supernatant and the analysis of IL-1β (μM) and TNF cytokines levels (μM) via MSD technology according to manufacturers' guidelines (MSD, K151A0H).
# (§2) IC50 and AC50 values (for […]) and EC50 and AC50 values (TNF) were obtained on compounds of the invention/examples, and the AC50 values are depicted in the following table: […]
# IL-1β = experiment: PBMC assay: IL-1β release after LPS stimulation; format: cell-based; conditions: human PBMCs, 30 min compound, 100 ng/ml LPS for 6 hrs, MSD, read-out: IL1β AC50
# Experimental: The activity of a compound according to the present invention can be assessed by in vitro methods.
# as §1, §2
Structure (SMILES),AC50 (TNF; PBMC),AC50 (IL-1β; PBMC),AC50 (TNF),AC50 (IL-1β)
CC(C)COc1cc(=O)n(CC(=O)Nc2nc3ccc(Cl)cn3n2)nc1C(C)C [Compound 129],> 20 µM,4.7 µM,,
CC(C)COc1c(C(C)C)nn(CC(=O)Nc2ccc3nncn3c2)c(=O)c1C(C)O (stereo not drawn) [Compound 155],> 20 µM,> 20 µM,,
CC(C)c1nn(CC(=O)Nc2ccc3nncn3c2)c(=O)cc1OC1CCC1 [Compound 14F],> 10 µM,0.68 µM,,
CC(C)c1nn(CC(=O)Nc2ccc3nncn3c2)c(=O)cc1OCC1CS(=O)(=O)C1 [Compound 6F],> 10 µM,> 15 µM,,
"CC(C)COc1cc(=O)n(CC(=O)N[C@]23CC[C@@](NC(=O)OC(C)(C)C)(CC2)C3)nc1C(C)C [Compound 122, tert-butyl ((1r,4r)-4-(2-(4-isobutoxy-3-isopropyl-6-oxopyridazin-1(6H)-yl)acetamido)bicyclo[2.2.1]heptan-1-yl)carbamate]",> 20 µM,2.81 µM,,
CCCOc1c(C(C)C)nn(CC(=O)Nc2ccc3nncn3n2)c(=O)c1Cl [Compound 48],4.98 µM,0.09 µM,,
CCOc1cc(=O)n(CC(=O)Nc2ccc3nncn3n2)nc1C1CC1 [Compound 31C],> 10 µM,0.92 µM,,
CC(C)COc1cc(=O)n(CC(=O)Nc2nc3cc(C(F)(F)F)ccn3n2)nc1C(C)C [Compound 87],> 20 µM,0.66 µM,,
CC(C)c1nn(CC(=O)Nc2ccc3nncn3c2)c(=O)cc1OCC(C)(C)C(F)(F)F [Compound 16F],> 10 µM,1.56 µM,,
CC(C)c1nn(CC(=O)Nc2ccc3nncn3c2)c(=O)cc1OC1CCCC1 [Compound 5F],> 10 µM,0.47 µM,,
O=C(Cn1nc(OCC(F)(F)F)c(OCC(F)(F)F)cc1=O)Nc1ccc2nncn2n1 [Compound 142],> 20 µM,15.7 µM,,
CC(C)COc1cc(=O)n(CC(=O)NC23CC(S(=O)(=O)C4CC4)(C2)C3)nc1C(C)C [Compound 116],> 20 µM,1.91 µM,,
CC(C)COc1cc(=O)n(CC(=O)NC23CCC(N)(C2)C3)nc1C(C)C [Compound 86],> 20 µM,0.66 µM,,
CC(C)c1nn(CC(=O)Nc2ccc3nncn3c2)c(=O)cc1OC1CCNC1 (stereo not drawn) [Compound 159],> 20 µM,> 20 µM,,
CC(C)c1nn(CC(=O)Nc2ccc3nncn3c2)c(=O)cc1OC(C)C(F)(F)F (stereo not drawn) [Compound 20F],> 10 µM,1.29 µM,,
Cc1c(OCC(C)C)c(C(C)C)nn(CC(=O)Nc2ccc3nccn3n2)c1=O [Compound 68],> 20 µM,0.24 µM,,
CC(C)COc1cc(=O)n(CC(=O)NC23CCC(C(=O)O)(CC2)CC3)nc1C(C)C [Compound 67],> 20 µM,0.24 µM,,
"CCN1CC[C@]12C[C@H](NC(=O)Cn1nc(C(C)C)c(OCC(C)C)cc1=O)C2 [Compound 81, N-((4s,6r)-1-ethyl-1-azaspiro[3.3]heptan-6-yl)-2-(4-isobutoxy-3-isopropyl-6-oxopyridazin-1(6H)-yl)acetamide]",> 20 µM,0.48 µM,,
CC(C)c1nn(CC(=O)Nc2ccc3nncn3n2)c(=O)cc1OCC(C)(F)F [Compound 56],> 20 µM,0.13 µM,,
CC(C)c1nn(CC(=O)Nc2ccc3nncn3c2)c(=O)c(Cl)c1OCC(F)(F)F [Compound 114],> 20 µM,1.85 µM,,
CC(C)COc1cc(=O)n(CC(=O)Nc2ccc3nncn3c2)nc1N(C)C [Compound 70],> 20 µM,0.26 µM,,
COc1ccn2nc(NC(=O)Cn3nc(C(C)C)c(OCC(C)C)cc3=O)nc2c1 [Compound 80],,,> 20 µM,0.45 µM
CC(C)COc1cc(=O)n(CC(=O)Nc2nc3ccc(F)cc3n2C)nc1C(C)C [Compound 136],> 10 µM,> 10 µM,,
CC(C)COc1c(C(C)C)nn(CC(=O)Nc2ccc3nncn3n2)c(=O)c1C(F)F [Compound 62],3.75 µM,0.18 µM,,
"Cc1c(OCC(C)C)c(C(C)C)nn(CC(=O)Nc2ccc3nncn3c2)c1=O [Compound 54, N-([1,2,4]triazolo[4,3-a]pyridin-6-yl)-2-(4-isobutoxy-3-isopropyl-5-methyl-6-oxopyridazin-1(6H)-yl)acetamide]",15.6 µM,0.1 µM,,
CC(C)COc1cc(=O)n(CC(=O)Nc2nc3ccc(C#N)cc3n2C)nc1C(C)C [Compound 146],> 20 µM,> 20 µM,,

Structure (SMILES),AC50 (TNF; PBMC),AC50 (IL-1β; PBMC),AC50 (TNF),AC50 (IL-1β)
CC(C)COc1cc(=O)n(CC(=O)Nc2ccncc2F)nc1C(C)C [Compound 52],> 20 µM,0.09 µM,,
CC(C)COc1cc(=O)n(CC(=O)NC23CC(NC(=O)OC(C)(C)C)(C2)C3)nc1C(C)C [Compound 132],> 20 µM,9.79 µM,,
CC(C)COc1cc(=O)n(CC(=O)NC23CC(N)(C2)C3)nc1C(C)C [Compound 117],> 20 µM,2.04 µM,,
CC(C)c1nn(CC(=O)Nc2ccc3nncn3c2)c(=O)cc1OCCN(C)C [Compound 12F],> 10 µM,> 15 µM,,
CC(C)COc1c(C(C)C)nn(CC(=O)Nc2ccc3nncn3n2)c(=O)c1C(C)O (stereo not drawn) [Compound 127],19.4 µM,3.88 µM,,
CC(C)c1nn(CC(=O)Nc2ccc3nncn3c2)c(=O)cc1OC1CN(C(=O)OC(C)(C)C)C1 [Compound 3F],> 10 µM,> 15 µM,,
COc1ccc2nc(NC(=O)Cn3nc(C(C)C)c(OCC(C)C)cc3=O)nn2c1 [Compound 123],> 20 µM,2.91 µM,,
"COC(=O)CC12CC(NC(=O)Cn3nc(C(C)C)c(OCC(C)C)cc3=O)(C1)C2 [Compound 71, methyl 2-(3-(2-(4-isobutoxy-3-isopropyl-6-oxopyridazin-1(6H)-yl)acetamido)bicyclo[1.1.1]pentan-1-yl)acetate]",> 20 µM,0.26 µM,,
CC(C)COc1cc(=O)n(NC23CCC(O)(CC2)C3)nc1C(C)C [Compound 59],,,> 20 µM,0.16 µM
CC(C)COc1cc(=O)n(CC(=O)Nc2nc3cccnc3o2)nc1C(C)C [Compound 144],> 20 µM,> 20 µM,,
CC(C)COc1cc(=O)n(CC(=O)NC23CC(CS(C)(=O)=O)(C2)C3)nc1C(C)C [Compound 112],> 20 µM,1.55 µM,,
CC(C)COc1cc(=O)n(CC(=O)NC2(CC(=O)O)CCCC2)nc1C(C)C [Compound 96],,,> 20 µM,0.87 µM
CC(C)c1nn(CC(=O)Nc2ccc3nncn3n2)c(=O)cc1OCCC(F)(F)F [Compound 102],> 20 µM,1.06 µM,,
CC(C)c1nn(CC(=O)Nc2ccc3nncn3c2)c(=O)cc1OCC(C)(C)F [Compound 11F],> 10 µM,0.32 µM,,
"CC(C)COc1cc(=O)n(CC(=O)NC23CCC(N)(CC2)C3)nc1C(C)C [Compound 75, N-((1r,4r)-4-aminobicyclo[2.2.1]heptan-1-yl)-2-(4-isobutoxy-3-isopropyl-6-oxopyridazin-1(6H)-yl)acetamide]",> 20 µM,0.36 µM,,
CC(C)COc1cc(=O)n(CC(=O)NC23CCC(O)(CC2)CC3)nc1C(C)C [Compound 88],> 20 µM,0.66 µM,,
CC(C)COc1cc(=O)n(CCO)nc1N(C)C [Compound 158],> 20 µM,> 20 µM,,
CNC(C(F)(F)F)C12CC(NC(=O)Cn3nc(C(C)C)c(OCC(C)C)cc3=O)(C1)C2 (stereo not drawn) [Compound 109],> 20 µM,1.35 µM,,
CC(C)COc1cc(=O)n(CC(=O)Nc2nc3ccccc3n2C)nc1C(C)C [Compound 147],> 20 µM,> 20 µM,,
CC(C)COc1cc(=O)n(CC(=O)Nc2ccc3nncn3n2)nc1N(C)C [Compound 58],> 10 µM,0.15 µM,,
CC(C)COc1cc(=O)n(CC(=O)NC23CC(F)(C2)C3)nc1C(C)C [Compound 105],> 20 µM,1.21 µM,,
CC(C)c1nn(CC(=O)Nc2ccc3nncn3c2)c(=O)cc1OCC(F)(F)F [Compound 23F],> 10 µM,0.16 µM,,
Cc1cc(NC(=O)Cn2nc(C(C)C)c(OCC(C)C)cc2=O)ccn1 [Compound 65],> 20 µM,0.21 µM,,
Cc1c(OCc2ccccc2)c(C(C)C)nn(CC(=O)Nc2ccc3nncn3c2)c1=O [Compound 152],> 20 µM,> 20 µM,,
CC(C)COc1c(C(C)C)nn(CC(=O)Nc2ccc3nncn3c2)c(=O)c1C(F)F [Compound 118],> 20 µM,2.3 µM,,

# Reference: patent US20240109905A1, “4-ALKOXY-6-OXO-PYRIDAZINE DERIVATIVES MODULATING NLRP3” (JANSSEN PHARMACEUTICA NV, priority 2021, published 2024)
